Measurements as given in paper PMC11823594, “Durlobactam in combination with β-lactams to combat Mycobacterium abscessus” (Antimicrobial Agents and Chemotherapy, 2024).

Experiments:
PBP-lipo [1] = target: T1, PBP-lipo (Mycobacteroides abscessus, UniProt B1MDC3); test: Steady-state kinetics with nitrocefin (Ki,app); assay type: biochemical; conditions: for Ki: nitrocefin at 5 × Km, read-out: Ki,app PBP-lipo (converted); for Ratio of fCss,avg to Ki,app, PBP-lipo: in parentheses in Table 3
T1 construct: made in house; host or cells: Escherichia coli BL21 (DE3)
T1 sequence (B1MDC3 entry or part of it): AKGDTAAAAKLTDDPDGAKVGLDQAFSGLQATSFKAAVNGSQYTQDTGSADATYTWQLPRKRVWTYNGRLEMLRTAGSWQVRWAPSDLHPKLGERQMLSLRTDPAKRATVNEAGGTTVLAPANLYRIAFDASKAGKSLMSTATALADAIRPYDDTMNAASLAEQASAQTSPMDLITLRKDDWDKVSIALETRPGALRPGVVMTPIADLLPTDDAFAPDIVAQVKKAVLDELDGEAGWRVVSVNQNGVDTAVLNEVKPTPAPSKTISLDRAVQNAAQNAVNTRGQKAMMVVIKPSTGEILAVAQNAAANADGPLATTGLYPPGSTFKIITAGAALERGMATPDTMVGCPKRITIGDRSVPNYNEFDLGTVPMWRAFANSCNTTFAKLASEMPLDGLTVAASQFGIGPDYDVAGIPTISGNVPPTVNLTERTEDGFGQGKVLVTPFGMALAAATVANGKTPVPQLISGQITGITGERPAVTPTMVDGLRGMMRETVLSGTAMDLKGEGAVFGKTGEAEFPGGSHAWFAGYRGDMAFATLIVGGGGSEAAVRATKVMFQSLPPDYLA
Protocol: Steady-state kinetic studies were conducted using purified LDTs and PBPs (LDT1-5, PBP B, PBP-lipo, and DDC) as previously described ([20]). The assays were performed using a BioTek Synergy2 multimode reader in conjunction with Gen5 analysis software. Increasing concentrations of NCF (Δε482 = 17,400 M^⁻¹ cm^⁻¹) were used, while fixed concentrations of the LDTs and PBPs were monitored for changes in absorbance at 482 nm over a time period of 0 to 10 min. To determine reaction velocities, a 0.25 cm path length was employed. The steady-state kinetic parameters (Vmax, kcat, and Km) were obtained by fitting the data to the Henri-Michaelis-Menten equation using a nonlinear least-squares fit in Origin 8.1 software (OriginLab, Northampton, MA). The reaction rate (v) at a given substrate concentration ([S]) was calculated according to the following equations: […]
To determine the apparent inhibition constants (Ki,app) for β-lactams and BLIs, the following experimental condition was employed: NCF as a substrate at a concentration of 5 × Km, LDT/ PBP enzymes with fixed concentration, and β-lactams and BLIs with various concentrations. Changes in absorbance at 482 nm were measured over a period of 0–30 min for each concentration of β-lactams and BLIs. Data were linearized using a Dixon plot, plotting the inverse changes in absorbance (1/ΔA) against the concentrations of β-lactams and BLIs. The observed Ki,app was determined directly from the Dixon plot, and these values were corrected for substrate concentration and affinity for the LDT using the following equation:
Ki,app=observed Ki,app/1+[NCF]/Km NCF

PBP-lipo [2] = target: T1, PBP-lipo; test: Bocillin-FL binding assay; conditions: 2 h incubation, 1:10 molar ratio
Protocol: To analyze the binding of PBP-lipo with β-lactams or BLIs, purified PBP-lipo (4 µg) was incubated with β-lactams or BLIs at a 1:10 molar ratio in a buffer containing 10 mM sodium phosphate (pH 7.4) and 150 mM NaCl. The incubation was carried out for 2 h at room temperature. After the initial incubation, 1 µM Bocillin FL was added to the reaction mixture. The incubation was continued for an additional 3–4 h at 37°C. After incubation, the samples were boiled to denature the proteins. The samples were then subjected to SDS-PAGE. The PBP-lipo:Bocillin complexes were visualized by fluorescence analysis at a wavelength of 488 nm using an Azure 300 gel imaging system. The intensity of the PBP-lipo:Bocillin complex bands was analyzed using GelAnalyzer software. The intensity of the band for PBP-lipo alone (without β-lactams) was set to 1 as the highest intensity. The intensity of each band for PBP-lipo incubated with β-lactams was then normalized by dividing by the intensity of the band for PBP-lipo alone.

LDT3 = LDT3 (Mycobacterium abscessus, UniProt B1MHQ4); test: Mass spectrometry of covalent adduct formation; assay type: binding; conditions: protein:drug 1:20, 2 h; mass accuracy ±5 Da; (−) = no change
Sequence of LDT3 (B1MHQ4 entry or part of it): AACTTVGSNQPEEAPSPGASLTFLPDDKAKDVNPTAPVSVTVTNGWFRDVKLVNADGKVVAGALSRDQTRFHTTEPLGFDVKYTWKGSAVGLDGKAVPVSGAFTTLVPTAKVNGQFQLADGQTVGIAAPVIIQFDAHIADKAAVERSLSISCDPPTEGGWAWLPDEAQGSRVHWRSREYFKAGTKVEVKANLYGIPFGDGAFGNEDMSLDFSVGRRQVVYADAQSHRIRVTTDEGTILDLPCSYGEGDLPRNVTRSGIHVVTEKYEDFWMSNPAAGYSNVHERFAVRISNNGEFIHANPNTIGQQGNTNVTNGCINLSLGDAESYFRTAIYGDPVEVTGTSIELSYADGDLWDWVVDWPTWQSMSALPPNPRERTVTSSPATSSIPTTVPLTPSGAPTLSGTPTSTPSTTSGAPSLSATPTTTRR
Protocol: (§1) Truncated sequences of LDT1-5, DDC, PBP B, and PBP-lipo (Δ1–41) were generated by Celtek Biosciences and cloned into the pET28(a) + vector with a tobacco etch virus (TEV) protease cleavage site before the start codon. Clones were transformed into Escherichia coli BL21 (DE3) and grown to an OD600 of 0.6–0.8. Protein expression was induced with 0.25 mM isopropyl β-d-1-thiogalactopyranoside (IPTG) and incubated for 18 h at 18°C. Cell pellets were collected and stored at −20°C overnight, then resuspended in a buffer containing 50 mM Tris (pH 8.0), 400 mM sodium chloride, and 1 mM Tris (2-carboxyethyl) phosphine hydrochloride (TCEP), followed by sonication and centrifugation. The supernatant was purified using a His Prep FF 16/10 column (GE Healthcare) and eluted with 500 mM imidazole. Eluted protein was dialyzed overnight at 4°C in a buffer with 50 mM Tris (pH 8.0), 150 mM sodium chloride, and 0.5 mM TCEP in the presence of His-tagged TEV protease. To remove the His tag, the mixture was passed over the His Prep FF 16/10 column again.
(§2) The purified proteins listed above were incubated at room temperature with β-lactams or BLIs at a molar ratio of 1:20 for 2 h. The reactions were then quenched with acetonitrile and diluted to 1 mL with 0.1% formic acid in water. Samples were analyzed using a quadrupole time-of-flight (Q-TOF) Waters Synapt-G2-Si electrospray ionization mass spectrometer (ESI-MS) and a Waters Acquity H class ultra-performance liquid chromatography (UPLC) system, equipped with a BEH C18 1.7 µm column (2.1 × 50 mm). The MS was tuned with the following settings: capillary voltage set at 3 kV, sampling cone at 35 V, source offset at 35, source temperature of 100°C, desolvation temperature of 500°C, cone gas flow rate at 100 L/h, desolvation gas flow rate at 800 L/h, and nebulizer set at 6.0. The mobile phases consisted of 0.1% formic acid in water and 0.1% formic acid in 100% acetonitrile, with gradient elution from 10% to 90% of […] over 11 min. The system’s mass accuracy was ±5 Da.

PBP B = PBP B (Mycobacterium abscessus, UniProt B1MP31); test: Mass spectrometry of covalent adduct formation; assay type: binding; conditions: protein:drug 1:20, 2 h; mass accuracy ±5 Da; (−) = no change
Sequence of PBP B (B1MP31 entry or part of it): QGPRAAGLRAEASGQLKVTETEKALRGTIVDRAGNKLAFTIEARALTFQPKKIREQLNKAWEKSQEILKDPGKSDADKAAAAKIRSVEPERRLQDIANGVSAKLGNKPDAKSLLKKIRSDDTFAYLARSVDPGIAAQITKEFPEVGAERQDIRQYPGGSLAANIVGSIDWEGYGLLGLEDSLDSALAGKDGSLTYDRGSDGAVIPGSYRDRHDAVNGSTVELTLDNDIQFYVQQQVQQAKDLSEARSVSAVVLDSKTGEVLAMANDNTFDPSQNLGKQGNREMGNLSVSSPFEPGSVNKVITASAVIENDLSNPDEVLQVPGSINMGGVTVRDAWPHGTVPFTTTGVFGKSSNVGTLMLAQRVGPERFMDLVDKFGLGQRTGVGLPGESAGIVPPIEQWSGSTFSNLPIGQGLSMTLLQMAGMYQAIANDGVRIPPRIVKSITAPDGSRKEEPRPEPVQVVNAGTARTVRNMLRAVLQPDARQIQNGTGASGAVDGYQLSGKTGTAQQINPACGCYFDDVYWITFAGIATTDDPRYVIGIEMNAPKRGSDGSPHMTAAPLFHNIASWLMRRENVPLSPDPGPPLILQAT
Protocol: as §1, with “Protein expression was induced with 0.25 mM isopropyl β-d-1-thiogalactopyranoside (IPTG) and incubated for 18 h at 18°C.” left out
as §2

LDT2 = LDT2 (Mycobacterium abscessus, UniProt B1MMQ4); test: Mass spectrometry of covalent adduct formation; assay type: binding; conditions: protein:drug 1:20, 2 h; mass accuracy ±5 Da; (−) = no change
Sequence of LDT2 (B1MMQ4 entry or part of it): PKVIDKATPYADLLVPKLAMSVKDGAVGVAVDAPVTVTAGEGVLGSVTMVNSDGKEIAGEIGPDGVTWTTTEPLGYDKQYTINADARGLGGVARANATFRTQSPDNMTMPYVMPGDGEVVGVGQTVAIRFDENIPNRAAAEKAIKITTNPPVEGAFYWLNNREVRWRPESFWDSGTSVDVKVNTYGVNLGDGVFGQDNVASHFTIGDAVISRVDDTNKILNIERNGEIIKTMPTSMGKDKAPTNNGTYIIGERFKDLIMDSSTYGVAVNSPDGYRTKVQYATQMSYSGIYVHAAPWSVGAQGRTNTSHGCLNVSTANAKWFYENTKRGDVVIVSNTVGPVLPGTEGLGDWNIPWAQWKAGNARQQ
Protocol: as §1, §2

Row | SMILES | Ki (PBP-lipo [1]) | Binding to PBP-lipo (Bocillin-FL competition) (PBP-lipo [2]) | Observed MW (+ change in mw), LDT3 (44,795) (LDT3) | Observed MW (+ change in mw), PBP B (62,915) (PBP B) | Ratio of fCss,avg to Ki,app, PBP-lipo (PBP-lipo [1]) | Observed MW (+ change in mw), LDT2 (39,216) (LDT2)
1 | CC1(C)S[C@@H]2[C@H](NC(=O)[C@H](N)c3ccc(O)cc3)C(=O)N2[C@H]1C(=O)O [Amoxicillin, amoxicillin] | 0.274 µM | demonstrated binding to PBP-lipo | 44,794 (−) Da | 63,280 (+365) Da | – | –
2 | NC(=O)[C@@H]1CC[C@@H]2CN1C(=O)N2OS(=O)(=O)O [Avibactam, avibactam] | 18.9 µM | demonstrated binding to PBP-lipo | 44,794 (−) Da | 63,180 (+265) Da | 1 | 39,482 (+266) Da
3 | CO/N=C(\C(=O)N[C@@H]1C(=O)N2C(C(=O)O)=C(COC(N)=O)CS[C@H]12)c1ccco1 [Cefuroxime, cefuroxime] | 51.8 µM | demonstrated binding to PBP-lipo | 44,794 (−) Da | 63,279 (+364) Da | 0.5 | 39,597 (+381) Da
4 | CC1=C[C@@H]2CN(C(=O)N2OS(=O)(=O)O)[C@@H]1C(N)=O [Durlobactam, durlobactam] | 0.361 µM | demonstrated binding to PBP-lipo | 44,794 (−) Da | 63192 (+277) Da | 133 | 39,492 (+278) Da
5 | C[C@@H](O)[C@H]1C(=O)N2C(C(=O)O)=C(SCCN=CN)C[C@H]12 [Imipenem, imipenem] | 2 µM | demonstrated binding to PBP-lipo | 44,794 (−) Da | 63,215 (+300) Da | 22 | 39,515 (+299) Da
6 | C[C@@H](O)[C@H]1C(=O)N2C(C(=O)O)=C(S[C@H]3CC[S@@+]([O-])C3)S[C@H]12 [Sulopenem, sulopenem] | 0.229 µM | demonstrated binding to PBP-lipo | 45,143 (+349) Da | 63,264 (+349) Da | 25 | 39,298 (+86) Da
7 | C[C@@H](O)[C@H]1C(=O)N2C(C(=O)O)=C(SC3CN(C4=NCCS4)C3)[C@H](C)[C@H]12 [Tebipenem, tebipenem] | 88.7 µM | – | 44,794 (−) Da | – | 0.05 | 39,602 (+386) Da
